Test results published in patent US5891742A, “Affinity selection of ligands by mass spectroscopy” (Chiron Corporation, priority 1995, dated 1999).

Assays:
[1] = biological target: sUPAR (Homo sapiens, UniProt Q03405); conditions: mixture 1 μM per compound, sUPAR 1 μM
Description: The mixture (1 μM per compound) was contacted with sUPAR (1 μM) in the presence and absence of uPA1-48(2 μM), incubated for 30 minutes, and applied to a SEC HPLC column (Pharmacia HSIO/IO). The compound-target complex eluting in the excluded volume of the column was collected and analyzed on an ES MS (PE-Sciex).

[2] = biological target: uPAR (Homo sapiens, UniProt Q03405); conditions: individual N-substituted glycine peptoids
uPAR, sequence (Q03405 23-305): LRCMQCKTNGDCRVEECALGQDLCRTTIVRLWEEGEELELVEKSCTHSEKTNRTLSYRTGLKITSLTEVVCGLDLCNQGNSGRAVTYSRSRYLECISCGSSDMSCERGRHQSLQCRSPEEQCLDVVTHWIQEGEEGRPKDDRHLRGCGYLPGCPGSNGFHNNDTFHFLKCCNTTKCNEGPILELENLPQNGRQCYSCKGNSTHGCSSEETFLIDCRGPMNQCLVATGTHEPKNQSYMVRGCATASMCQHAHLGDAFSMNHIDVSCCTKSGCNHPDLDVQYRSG
Description: Human urokinase plasminogen activator receptor (UPAR) was expressed in a soluble, truncated form as described by Rosenberg et al., W094/28145, incorporated herein by reference. […] The ligand uPA1-48 was prepared as described in Rosenberg, supra.

sUPAR, sequence (Q03405 23-305): as above

Substance | selection as compound-target complex, detected by ES MS ([1]; absence of uPA1-48, 30 minutes, SEC HPLC excluded volume) | specificity of selection, by competition with ligand uPA1-48 ([1]; presence of uPA1-48 (2 μM)) | activity (affinity for uPAR) [2]
diphenyl | selected | specificity was confirmed by competition | –
1,4-benzodioxane | – | – | insignificant activity
